Data as given in ChEMBL document CHEMBL6114960, “Discovery of First-in-Class FXR and HSD17B13 Dual Modulator for the Treatment of Metabolic Dysfunction-Associated Fatty Liver Disease” (J Med Chem, 2025).

Tests used:
Bile acid receptor [1] = target: T1, Bile acid receptor (Homo sapiens, UniProt Q96RI1); experiment: Agonist activity at FXR-LBD (unknown origin) incubated for 3 hrs in presence of fluorescein-coactivator peptide by TR-FRET analysis
T1 sequence (Q96RI1 whole entry): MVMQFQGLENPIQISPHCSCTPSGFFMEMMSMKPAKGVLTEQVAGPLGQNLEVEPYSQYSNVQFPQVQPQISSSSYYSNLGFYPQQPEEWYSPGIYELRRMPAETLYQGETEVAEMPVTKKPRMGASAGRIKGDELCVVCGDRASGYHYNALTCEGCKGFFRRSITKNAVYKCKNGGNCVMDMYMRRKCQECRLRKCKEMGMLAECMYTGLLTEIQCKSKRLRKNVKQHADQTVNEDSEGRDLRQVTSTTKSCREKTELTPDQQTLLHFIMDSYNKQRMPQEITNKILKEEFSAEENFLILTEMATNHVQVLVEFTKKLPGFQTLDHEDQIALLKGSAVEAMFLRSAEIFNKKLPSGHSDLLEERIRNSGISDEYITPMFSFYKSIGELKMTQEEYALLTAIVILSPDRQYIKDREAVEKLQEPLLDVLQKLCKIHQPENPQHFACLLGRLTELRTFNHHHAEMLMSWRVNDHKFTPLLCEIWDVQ

Bile acid receptor [2] = target: T1, Bile acid receptor; experiment: Agonist activity at FXR (unknown origin) transfected in human HepG2 cells incubated for 24 hrs by luciferase assay; type: cell-based
[3] = target: T2, 17-beta-hydroxysteroid dehydrogenase 13 (Homo sapiens, UniProt Q7Z5P4)
T2 sequence (Q7Z5P4 whole entry): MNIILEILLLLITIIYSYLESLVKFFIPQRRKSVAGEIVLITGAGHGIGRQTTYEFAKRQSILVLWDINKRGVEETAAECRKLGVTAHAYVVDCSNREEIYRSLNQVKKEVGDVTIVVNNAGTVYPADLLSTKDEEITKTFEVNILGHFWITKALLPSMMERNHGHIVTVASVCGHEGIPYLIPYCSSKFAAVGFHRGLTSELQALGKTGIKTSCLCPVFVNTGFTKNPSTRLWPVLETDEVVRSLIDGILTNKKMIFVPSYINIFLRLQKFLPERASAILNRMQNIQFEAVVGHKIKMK
Description: Inhibition of HSD17B13 (unknown origin) using beta-estradiol and FAC-NAD+ as substrate incubated for 2 hrs by NAD(P)H-Glo detection reagent based luminescence assay

Bile acid receptor [4] = target: T1, Bile acid receptor; experiment: Agonist activity at FXR (unknown origin)
Mus musculus = experiment: Anti-MASH activity in western diet and CCl4 co-induced male C57BL/6 mouse model assessed as NAFLD activity score at 20 mg/kg, po administered with high fat diet and sugar water for 12 weeks with subsequent CCl4 administration three times a week and measured after 4 weeks of compound administration via gavage starting from 9th week (Rvb > 6); type: functional

Row | Structure (SMILES) | EC50 (Bile acid receptor [1]) [nM] | EC50 (Bile acid receptor [2]) [nM] | other results
1 | CC(C)NC(=O)c1ccc(-c2ccc(OCc3c(-c4c(Cl)cccc4Cl)noc3C3CC3)cc2)cc1 | 974 | – | –
2 | CN(C)C(=O)c1ccc(-c2ccc(OCc3c(-c4c(Cl)cccc4Cl)noc3C3CC3)cc2)cc1 | 482 | – | –
3 | CN(C)C(=O)c1cccc(-c2ccc(OCc3c(-c4c(Cl)cccc4Cl)noc3C3CC3)cc2)c1 | 209 | 493 | –
4 | CC(C)c1onc(-c2ccccc2C(F)(F)F)c1COc1ccc(-c2ccc(C(=O)O)cc2)cc1 | 232 | 525 | –
5 | O=C(O)C1=CC2NC(c3ccc(OCc4c(-c5c(Cl)cccc5Cl)noc4C4CC4)cc3)=NC2C=C1 (stereo unspecified) | – | – | IC50 [3]: 4350 nM
6 | O=C(NCC1CC1)c1cccc(-c2ccc(OCc3c(-c4c(Cl)cccc4Cl)noc3C3CC3)cc2)c1 | > 10000 | – | –
7 | CC(C)(C)NC(=O)c1cccc(-c2ccc(OCc3c(-c4c(Cl)cccc4Cl)noc3C3CC3)cc2)c1 | > 10000 | – | –
8 | CNC(=O)c1ccc(-c2ccc(OCc3c(-c4c(Cl)cccc4Cl)noc3C3CC3)cc2)cc1 | 146 | 288 | –
9 | OCC1(c2cccc(-c3ccc(OCc4c(-c5c(Cl)cccc5Cl)noc4C4CC4)cc3)c2)CC1 | > 10000 | – | –
10 | O=C(c1cccc(-c2ccc(OCc3c(-c4c(Cl)cccc4Cl)noc3C3CC3)cc2)c1)N1CCOCC1 | > 10000 | – | –
11 | O=C(O)c1ccc(-c2ccc(OCc3c(-c4c(Cl)cccc4Cl)noc3C3CC3)cn2)cc1 | 697 | – | –
12 | O=C(NC1CC1)c1cccc(-c2ccc(OCc3c(-c4c(Cl)cccc4Cl)noc3C3CC3)cc2)c1 | 579 | – | –
13 | OCCOc1ccc(-c2ccc(OCc3c(-c4c(Cl)cccc4Cl)noc3C3CC3)cc2)cc1 | > 10000 | – | –
14 | O=C(O)c1ccnc(N2CC(O)(c3ccc(OCc4c(-c5c(Cl)cccc5Cl)noc4C4CC4)cc3Cl)C2)c1 [CILOFEXOR] | – | – | EC50 (Bile acid receptor [4]): 58 nM
15 | CC[C@H]1[C@@H](O)[C@@H]2[C@H](CC[C@]3(C)[C@@H]([C@H](C)CCC(=O)O)CC[C@@H]23)[C@@]2(C)CC[C@@H](O)C[C@@H]12 [OBETICHOLIC ACID] | – | – | IC50 [3]: > 10000 nM; Activity (Mus musculus): 3.5

The next lines start with results.

Row | EC50 (Bile acid receptor [1]) [nM] | EC50 (Bile acid receptor [2]) [nM] | Structure (SMILES) | other results
16 | 134 | 301 | Cc1cc(OCc2c(-c3c(Cl)cccc3Cl)noc2C2CC2)ccc1-c1ccc(C(=O)O)cc1 | –
17 | 121 | 186 | O=C(O)c1cccc2nc(-c3ccc(OCc4c(-c5c(Cl)cccc5Cl)noc4C4CC4)cc3)cn12 | IC50 [3]: 850 nM
18 | 129 | 329 | O=C(O)c1ccc(-c2ccc(OCc3c(-c4c(Cl)cccc4Cl)noc3C3CC3)cc2)nc1 | –
19 | 143 | 475 | O=C(O)c1ccc(-c2ccc(OCc3c(-c4c(Cl)cccc4Cl)noc3C3CC3)c(F)c2)cc1 | –
20 | 193 | 239 | O=C(O)c1ccc(-c2ccc(OCc3c(-c4c(Cl)cccc4Cl)noc3C3CC3)cc2)cc1Cl | –
21 | 531 | – | O=C(O)c1c(F)cc(-c2ccc(OCc3c(-c4c(Cl)cccc4Cl)noc3C3CC3)cc2)cc1F | –
22 | 119 | 288 | O=C(O)c1ccc(-c2ccc(OCc3c(-c4c(Cl)cccc4Cl)noc3C3CC3)cc2)c(C(F)(F)F)c1 | –
23 | 271 | 491 | O=C(O)c1ccc(-c2ccc(OCc3c(-c4c(Cl)cccc4Cl)noc3C3CC3)cc2)s1 | –
24 | 114 | 282 | O=C(O)c1ccc(-c2ccc(OCc3c(-c4c(Cl)cccc4Cl)noc3C3CC3)cc2)c(F)c1 | –
25 | 145 | 372 | NC(=O)c1ccc(-c2ccc(OCc3c(-c4c(Cl)cccc4Cl)noc3C3CC3)cc2)cc1 | –
26 | 85 | 261 | Cc1cc(OCc2c(-c3c(Cl)cccc3Cl)noc2C2CC2)cc(C)c1-c1ccc(C(=O)O)cc1 | –
